{"source": "patent US20130316948A1", "about": "“GROWTH HORMONE RECEPTOR DEFICIENCY CAUSES A MAJOR REDUCTION IN PRO-AGING SIGNALING, CANCER AND DIABETES IN HUMANS” (UNIVERSITY OF SOUTHERN CALIFORNIA, priority 2011, published 2013)", "molecules": {"B1": {"name": "IGFBP1: IGF-I inhibitor insulin-like growth factor-binding protein 1 (protein, UniProt P08833 26-259, looked up)", "Insulin-like growth …": "APWQCAPCSAEKLALCPPVSASCSEVTRSAGCGCCPMCALPLGAACGVATARCARGLSCRALPGEQQPLHALTRGQGACVQESDASAPHAAEAGSPESPESTEITEEELLDNFHLMAPSEEDHSILWDAISTYDGSKALHVTNIKKWKEPCRIELYRVVESLAKAQETSGEEISKFYLPNCNKNGFYHSRQCETSMDGEAGLCWCVYPWNGKRIPGSPEIRGDPNCQIYFNVQN"}}, "key": {"[1]": {"test": "Short term immunization with human GH before cyclophosphamide: body weight and complete blood count", "format": "in vivo, mouse", "details": "cyclophosphamide i.p., 300 mg/kg, CBC 7-days after CP", "description": "FIG. 17A provides plots of the body weight of mice with short term immunization (STI) with human GH (half-filled arrowheads) after cyclophosphamide treatment (cyclophosphamide (CP) i.p., 300 mg/kg, indicated by the solid arrowhead) (Sham means treated with buffer and no chemo);\nFIG. 17B provides a histogram of the complete blood count (CBC) 7-days after CP treatment (Data are presented as percentage of pre-chemo value);\nFIG. 17A provides plots of the body weight of mice with short term immunization (STI) with human GH (half-filled arrowheads) after cyclophosphamide treatment (cyclophosphamide (CP) i.p., 300 mg/kg, indicated by solid arrowheads). FIG. 17B provides a histogram of the complete blood count (CBC) 7-days after CP treatment (Data are presented as percentage of pre-chemo value)."}, "[2]": {"target": "human GH (Homo sapiens, UniProt P01241)", "sequence (P01241 27-217)": "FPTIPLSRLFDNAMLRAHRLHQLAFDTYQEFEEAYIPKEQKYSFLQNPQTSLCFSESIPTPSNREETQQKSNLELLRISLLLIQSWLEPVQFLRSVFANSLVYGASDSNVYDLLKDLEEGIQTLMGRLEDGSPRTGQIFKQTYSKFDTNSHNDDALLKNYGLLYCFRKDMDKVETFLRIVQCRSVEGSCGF", "test": "Slot blot of anti-huGH activity in serum from mice immunized with huGH", "format": "in vivo, mouse", "details": "slot blot against immobilized human GH"}, "[3]": {"test": "Body weight of mice immunized with human Growth Hormone", "format": "in vivo, mouse", "details": "20 male and 20 female mice, versus time", "text": "FIG. 16A provides a plot of body weight of mice immunized with human Growth Hormone (huGH) (20 male and 20 female) versus time.\nThis figure provides a plot of body weight of mice immunized with human Growth Hormone (huGH) (20 male and 20 female) versus time."}, "[4]": {"test_system": "pancreatic carcinoma cells", "details": "Mol Cancer Ther May 2009 8:1095-1105; cited from earlier work"}, "[5]": {"test_system": "HMECs", "test": "LDH cytotoxicity assay after H2O2 in epithelial cells incubated in serum", "format": "cell-based, human", "details": "200 ng/ml IGF-I added to GHRD serum, 700 μM H2O2"}, "[6]": {"test_system": "primary glial cells", "test": "24 hour LDH release from primary glial cells under oxidative damage", "format": "cell-based", "description": "FIG. 20 provides a plot of the 24 hour lactate dehydrogenase (LDH) release from the treatment of primary glial cells with the IGF-I inhibitor insulin-like growth factor-binding protein 1 (IGFBP1) and with insulin-like growth factor-binding protein 2 (IGFBP2). […] IGFBP1 is a strong IGF-I inhibtor. Other IGFBPs can even increase IGF-I signaling."}}, "data": [{"molecule": "huGH: human Growth Hormone used to immunize mice to generate inhibitory antibodies against GH", "values": [{"measurement": "Effect of immunization on chemotherapy side effects (body weight, CBC)", "setting": "[1]", "result": "protective effect against chemotherapy side effects"}, {"measurement": "Immunized mice whose serum showed strong anti-huGH activity", "setting": "[2]", "result": "34 out of 40"}, {"measurement": "Body weight of immunized mice", "setting": "[3]", "result": "Lower body weight"}]}, {"molecule": "AMG 479: fully human anti-insulin-like growth factor receptor type I monoclonal antibody", "values": [{"measurement": "Effect on pancreatic carcinoma cells", "setting": "[4]", "result": "inhibits the growth and survival of pancreatic carcinoma cells"}]}, {"molecule": "IGF-I: insulin like growth factor-I, added at 200 ng/ml to GHRD serum", "values": [{"measurement": "Effect on the higher cytotoxicity seen in GHRD serum", "setting": "[5]", "result": "completely reversed"}]}, {"molecule": "B1", "values": [{"measurement": "Effect on oxidative damage (LDH release)", "setting": "[6]", "result": "protects them against oxidative damage"}]}]}
